Assay [1] can be described thus: Inhibition of PI3Kdelta in conA-stimulated primary human T cell proliferation incubated for 1 hr by CellTiter-glo luminescent assay. (In general: Cellular ATP, detected with luciferase, serves as a proxy for viable cell number.)
Assay [2] in a line: Inhibition of PI3Kdelta in anti-FceRI-stimulated human Basophil cells degranulation incubated for 30 mins.

Consider `C[C@H]1CC[C@@H](c2nc3cccc(Cl)c3c(=O)n2-c2cccc(F)c2)N1c1ncnc2[nH]cnc12`, for which the IC50 – broadly, the concentration that gives 50% inhibition – in assay [1] was determined as 21 nM; in assay [2], 8.2 nM.

The values are drawn from BindingDB's records for PubMed 34138567 (National Clinical Research Center For Geriatrics, 2021).
